In patent US20110197293A1, “SENSE AND ANTISENSE TRANSCRIPTS OF TRPM2 AND USES THEREOF” (GIOVANNI LAVORGNA, priority 2008, published 2011):

Assays:
Type in all cases: cell-based, human
TRPM2-TE transcript = assay: qPCR of TRPM2-TE transcript after siRNA transfection in Mel Im cells; settings: siRNA 10 nM, harvested at 24 hours, respect to mock-transfected cells
Text: (§1) Beta-actin (Exons 5-6) was amplified from cDNAs using the specific primers: LC+hBactin-U 5′-TCCTCCTGGAGAAGAGCTA-3′ (SEQ ID No. 6) and LC+hBactin-L 5′-GGATGCCACAGGACTCCAT-3′ (SEQ ID No. 7) coupled to human Universal Probe Library (UPL) probe number 11 (Roche) resulting in a 124 bp fragment. TRPM2-FL (Exons 20-21) was amplified by RT-PCR from cDNAs using the specific primers: RCH_LONG_TRPM2_U 5′-ACCTCCTCATCGCCATGTT-3′ (SEQ ID No. 8) and RCH_LONG_TRPM2_L 5′-[…]-3′ (SEQ ID No. 9) coupled to human UPL probe number 11, resulting in a 68 bp fragment. TRPM2-AS (Exons 1-2) was amplified by RT-PCR from cDNAs using the specific primers: RCH-asmel-1F 5′-[…]-3′ (SEQ ID No. 10) and RCH-asmel-1R 5′-[…]-3′ (SEQ ID No. 11) coupled to human UPL probe number 57, resulting in a 61 bp fragment. TRPM2-TE was amplified from cDNAs using the primers: UPL-TSS-U 5′-GATGTTTTGGCGGAAGGAC-3′ (SEQ ID No. 12) and UPL-TSS-Rev 5′-CAGGAAGACGTGACGCAAG-3′ (SEQ ID No. 13) coupled to human UPL probe number 6, resulting in a 88 bp intronless fragment. The contribution of genomic DNA contamination to the detected signal was subtracted by running a parallel real-time quantification from a RT-minus reaction, where the RT-enzyme was substituted with water. When RNA was not available to perform the RT-minus control, the contribution of DNA contamination to the detected signal was subtracted by performing a real-time quantification on the same samples, using a couple of primers specific for the Beta-actin promoter: LC-ProBACT-U1 5′-[…]-3′ (SEQ ID No. 14) and LC-ProBACT-L1 5′-[…]-3′ (SEQ ID No. 15) coupled to human UPL probe number 81 (Roche) resulting in a 85 bp fragment. Real time PCR reactions were performed on a LightCycler 480 instrument (Roche), on 96 multiwell plates (Roche) using LightCycler 480 ProbeMaster Mix (Roche) following the manufacturer instructions. Briefly, all reactions were performed in a final 30 μl volume containing 15 μl of 2× MasterMix, 0.6 μl of each primer (20 μmol/L), 0.3 μl of the corresponding UPL probe (10 μmol/L), and 10 μl of template cDNA. Only for TRPM2-AS the reaction was supplemented with 6 μl of 5× Solution-Q (Qiagen) and the cDNA template lowered to 7 μl. The resulting mix was pre-incubated for 10 minutes at 95° C., then amplification reactions were performed by 45 repetitive cycles of denaturing for 10 seconds at 95° C., annealing for 15 seconds at 58° C. and a final extension plus single acquisition step at 72° C. for 1 second. Levels of target gene transcripts were normalized to transcript levels of a reference gene (Beta-actin) and calculated using a relative quantification model with efficiency correction. Amplification efficiency of primer pairs was calculated from serial dilutions of a representative cDNA template over a concentration range of 3 log orders. […]

TRPM2-AS transcript = assay: qPCR of TRPM2-AS transcript after siRNA transfection in Mel Im cells; settings: siRNA 10 nM, harvested at 24 hours, respect to mock-transfected cells
Text: as §1

Melanoma cells = assay: Apoptosis detection by flow cytometry (Annexin V) after siRNA transfection; settings: 72 h after transfection
Procedure: Apoptosis was measured after a 72 h transfection with any of the following siRNA: TRPM2-AS—657, TRPM2-AS—734, TRPM2-TE—55 or the non-specific siRNA. Early and late apoptotic cells were assessed by flow cytometry using the Annexin V-Fitc Apoptosis Detection kit (Immunostep, Salamanca, Spain), following manufacturer's instructions. Data acquisition and analysis were done in a FACSort Cytometer (Becton Dickinson, Franklin Lakes, N.J.) using CellQuest and FCS Express software.

[1] = system: CpG island located between TRPM2-AS and TRPM2-TE transcripts; assay: De-novo DNA methylation of the CpG island, bisulphite sequencing of clones; settings: Mel Im cells, liposome-encapsulated oligonucleotides 3 μM final, 24 hours
Procedure: Genomic DNA was isolated and purified with TRIzol reagent (Invitrogen) and quantified with a Nanodrop. Average 100 ng of each DNA sample were subjected to bisulphite modification with the MethylEasy Kit (Human Genetic Signatures) allowing the sulphonation reaction to proceed for no less than 8 hours at 55° C. Following conversion, 3 μl of the modified DNAs were PCR amplified with the primers CpG-8U 5′-[…]-3′ (SEQ ID No. 3) and CpG-8L 5′-[…]-3′ (SEQ ID No. 4) (1 ng/μl each) in the presence of buffer 10× (Qiagen), dNTPs (2 mmol/L), 5× Solution Q (Qiagen), Taq DNA Polymerase (3U), with the reaction conditions being: 1 minute of pre-incubation at 95° C., then amplification reactions were performed by 35 repetitive cycles of denaturing for 1 minute at 95° C., annealing for 2 minutes at 55° C. and extension for 2 minutes at 72° C. A semi-nested PCR reaction was performed in same conditions except for the forward primer changed to CpG-1U 5′-[…]-3′ (SEQ ID No. 5), using 4 μl of the previous 472 bp per product as template. The resulting 370 bp product was then gel-purified, cloned and sequenced using standard procedures.
Three phosphorothioate oligonucleotides were designed in which the cytosines in CpG dinucleotides were replaced by m^5 CpG. […]

Substance | knock-out of TRPM2-TE transcripts/molecules (TRPM2-TE transcript) | knock-down of TRPM2-AS transcript expression (TRPM2-AS transcript) | level of apoptosis vs. the control siRNA or the mock transfected cells (Melanoma cells) | methylation of CpG island clones (5 clones sequenced) [1]
5′-GAAGGACCACAGAGGAAGU(dTdT)-3′ [TRPM2-TE—55] | 56% | 30% | significant increase | 
5′-AGGUAGUGUAAUCGCCUUG(dTdT)-3′ [non-specific siRNA, reference compound] | No significant down-regulation | No significant down-regulation |  | 
TCCT^mCGGGCTGCTGAGTTT^mCGC^mCGGCCC (DNA TCCTCGGGCTGCTGAGTTTCGCCGGCCC; 5-methylcytosine modifications, chemistry not fully specified) [MOS] |  |  |  | non-methylation
5′-CCAGUAACUCCGCCCAAAU(dTdT)-3′ [TRPM2-AS—657] | 84% | 69% | significant increase | 
5′-CCACUUACUCAUCCAAGAA(dTdT)-3′ [TRPM2-AS—734] | 70% | 75% | significant increase | 
